Measurements from US8927580B2, “Thiosemicarbazone compounds and use in the treatment of cancer” (Oncochel Therapeutics LLC, priority 2010, dated 2015).

Legend:
[1] = test system: SK-N-MC neuroepithelioma cells; assay: Iron uptake assay (59Fe uptake from 59Fe-transferrin); type: cell-based, human; conditions: 25 μM chelator, 3 h at 37° C., 59Fe-Tf
Experimental: Cells were cultured in the same way as for the iron efflux experiments. […] At the end of the incubation the culture dishes were placed on ice, the media aspirated, and the cells washed 4 times with ice cold PBS. Protease (1 mL; 1 mg/mL; Sigma-Aldrich, NSW, Australia) solution was added to each plate and allowed to incubate on ice for 30 min. This facilitated the removal of membrane bound ^59Fe-Tf. Cells were then scraped from the plastic surface using a Teflon spatula and collected in Eppendorf tubes. These were centrifuged at 10000 rpm and 4° C. for 3 min. The supernatant was then transferred into counting tubes and the cell pellet resuspended in PBS before also being transferred into another set of counting tubes. Radioactivity was measured using a Wallac Wizard 3″ Gamma Counter (PerkinElmer, MA, USA). Results are expressed as average ^59Fe content of the cellular fraction as a percentage of the control value.

[2] = test system: SK-N-MC neuroepithelioma cells; assay: Iron efflux assay (59Fe release from pre-labeled cells); type: cell-based, human; conditions: 25 μM chelator, 3 h at 37° C.
Experimental: The culture dishes were then placed on ice, the supernatant containing excess ^59Fe-Tf was aspirated and the cells washed 4 times with ice-cold PBS. […] After 3 h the culture dishes were again placed on ice, the media was collected in counting tubes and this provided a measurement of released ^59Fe. Ice-cold PBS (1 mL) was added to plates containing cells and cells were scraped from the plastic surface using a Teflon spatula and also collected in counting tubes. These tubes represent the intracellular ^59Fe content. Results are expressed as total ^59Fe released as a percentage of total ^59Fe present. Radioactivity was measured using a Wallac Wizard 3″ Gamma Counter (PerkinElmer, MA, USA).

[3] = test system: MIAPaCa-2 pancreatic cancer cells; assay: MTT proliferation assay, MIAPaCa-2; type: cell-based; conditions: Homo sapiens, MIA PaCa-2; MIAPaCa-2, MTT, 72 h
Experimental: The pancreatic cancer cell lines, including MIAPaCa-2, PANC 1, CAPAN-2 and CFPAC-1 were a generous gift from Prof. Andrew Biankin (Garvan Institute, NSW, Australia). The MIAPaCa-2, PANC 1 and CFPAC-1 cell lines were grown in DMEM medium (Invitrogen) and CAPAN-2 cells were grown in McCoy's medium (Invitrogen). All media was supplemented with 10% (v/v) fetal calf serum (Invitrogen), 1% (v/v) non-essential amino acids (Invitrogen), 1% (v/v) sodium pyruvate (Invitrogen), 2 mM L-glutamine (Invitrogen), 100 μg/mL of streptomycin (Invitrogen), 100 U/ml penicillin (Invitrogen), and 0.28 μg/mL of fungizone.
To further examine the spectrum of anti-proliferative activity, Dp4cycH4mT was tested against pancreatic cancer in vitro, performing MTT proliferation assays with PANC 1, MIAPaCa-2, CFPAC-1 and CAPAN-2 pancreatic cancer cells. As a comparison, currently used treatments for pancreatic cancer including gemcitabine and 5-fluorouracil were also tested. The iron chelator, DFO, was included as a positive control.
(§1) Table 2A. Anti-proliferative activity of Dp4cycH4mT against pancreatic cancer cell lines. Growth and antiproliferative activity IC50 (μM) values of Dp4cycH4mT in a variety of pancreatic cell lines and in comparison to DFO and the clinically used drugs gemcitabine and 5-fluorouracil as determined by the MTT assay. Cells were seeded and allowed to attach to wells for 24 h and then incubated for 72 h at 37° C. with control medium or the chelators. Results are mean±SD (3 experiments).
as §1, with “2B.” for “2A.”, “IC90” for “Growth and antiproliferative activity IC50”

[4] = test system: metmyoglobin (metMb); assay: metMb formation in vivo; design: species or system C57BL6 mice; conditions: 6 mg/kg intravenously, 30 min post-administration, heart
Experimental: FIG. 14. Effect of thiosemicarbazone chelators on metMb-formation in vivo. MetMb levels after Dp44mT Triapine® or Dp4cycH4mT treatment in vivo at a dose of 6 mg/kg administered intravenously via the tail vein. Mice in the control group were treated with vehicle alone. At 30 min post-administration, whole hearts were collected for determination of metMb levels.
Mouse heart tissue was exhaustively perfused with ice-cold HBSS to remove blood and homogenized in ice-cold HBSS containing protease inhibitor cocktail (Roche, Basel, Switzerland). Heart homogenates were centrifuged (16,000×xg/45 min/4° C.) and the supernatant ([oxyMb]=50 μM) used immediately.
The levels of metHb and metMb in RBC lysates were determined using a Shimadzu UV-Vis spectrophotometer (UV-1800; Shimadzu Corporation, Kyoto, Japan) at 577 nm and 630 nm for metHb and metMb in accordance with published methods (Winterbourn CC and Carrell R W (1977). Biochem J 165: 141-148).
C57BL6 mice (7-8 weeks-old) were used under a protocol approved by the university of Sydney Animal Ethics Committee. Dp44mT, Triapine® or Dp4cycH4mT (all at 6 mg/kg) were dissolved in 30% propylene glycol/saline and administered iv via the tail vein. Subsequently, 30 min after administration, mice were anesthetized with isoflurane and blood samples obtained by cardiac puncture. Blood samples were lysed with 2.5 volumes of ultrapure water for metHb estimation. Mice were sacrificed with isoflurane, the heart exhaustively perfused with HBSS and Mb isolated.

CN(C(=S)NN=C(c1ccccn1)c1ccccn1)C1CCCCC1 [Dp4cycH4mT, di-2-pyridylketone 4-cyclohexyl-4-methyl-3-thiosemicarbazone]
cellular 59Fe uptake (% of the control) [1]: 21%
cellular 59Fe mobilised (59Fe released as percentage of total 59Fe) [2]: 22%
IC50 [3]: 9 ± 0.3 nM
IC90 [3]: > 5000 nM
levels of metMb [4]: 31.7±3.2%
